Assay results taken from US20150224164A1, “TREATMENT OF AUTISM SPECTRUM DISORDERS USING GLYCYL-L-2-METHYLPROLYL-L-GLUMATIC ACID” (Neuren Pharmaceuticals Limited, priority 2013, published 2015).
Where a SMILES comes first, the peptide text is derived from it.

System: 17 month old rats
Test: 8-arm radial maze, spatial working memory
Type: in vivo, rat
Details: for WCC8-12 score, improvement across days: 9-day washout
Description: The apparatus consists of a central platform communicating with 8 identical arms, each with a food cup at the end of the arm Rats were partially food-deprived for at least 10 days prior to, and throughout the radial maze procedure. The maze was assembled and positioned so that the experimenter could clearly observe the rats' behavior from a predetermined location. The experimenter numbered the arms of the maze according to their orientation from one to eight in a clock-wise direction. On day one the doors were inserted into the arms and each rat was confined in the central platform with 20 food pellets for 5 minutes. […] The following day the rats were allowed five minutes to explore the whole maze. All arms were baited with two food pellets in the food cup located at the end of each arm, and one pellet at both the entrance and middle of each arm. This was repeated for at least five, but up to eight days for rats that explored fewer than eight arms in two consecutive sessions. […] At this point it was decided that one of the old rats that had made only one arm entry on eight of the nine days should be excluded from future testing in this procedure. Otherwise all rats were included regardless of the amount of exploring they performed in pre-training. […] 30 days before the test (five days after pre-training) the 17 Male Wistar month old rats were implanted (under halothane anesthesia) with sub-cutaneous mini-osmotic pumps (Alzet) to dispense drug continuously for 3 weeks. At the completion of the infusion the pumps were removed and the wounds re-sutured (9-day washout allowed). The treatment groups were: • 1. young controls (4 months old), n=6; • 2. saline n=10; • 3. G-2-MePE low dose (2.4 mg/kg/day) n=13 • 4. G-2-MePE high dose (12.4 mg/kg/day) n=5 Working memory testing commenced on the ninth day of washout. Rats received 10 daily training sessions over 12 days. […] The experimenter recorded the sequence of arm entries with pen and paper. […] The time taken to enter all eight arms, when this occurred, was recorded. […]

## C[C@@]1(C(=O)N[C@@H](CCC(=O)O)C(=O)O)CCCN1C(=O)CN [Example G-2-MePE, Glycyl-L-2-methylprolyl-L-glutamic acid] (HELM PEPTIDE1{G.[C[C@@]1(C(=O)[*:2])CCCN1[*:1]].E}$$$$V2.0)
High dose 12.4 mg/kg/day s.c. pump 3 weeks
  WCC8-12 score, improvement across days: showed the greatest improvement across days
Higher dose vs vehicle, p<0.05
  correct maze choices averaged across days: more correct entries
Low dose 2.4 mg/kg/day s.c. pump 3 weeks
  WCC8-12 score, improvement across days: very little difference
